Results reported in ChEMBL document CHEMBL1201862, “PubChem BioAssay data set” (2004).
Active and inactive are the calls of the source.

Experiments:
Cytochrome P450 3A4 = Cytochrome P450 3A4 (Homo sapiens, UniProt P08684); settings: Potency;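 further: confirmatory qHTS run detecting inhibitors and substrates of CYP3A4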
[1] = target: T1, Voltage-gated N-type calcium channel alpha-1B subunit/Amyloid beta A4 precursor protein-binding family A member 1 (Homo sapiens, UniProt Q00975+Q02410); format: protein assay
[2] = target: T1, Voltage-gated N-type calcium channel alpha-1B subunit/Amyloid beta A4 precursor protein-binding family A member 1; format: protein assay; remark: listed apart in the source
[3] = target: Nucleotide-binding oligomerization domain-containing protein 2 (Homo sapiens, UniProt Q9HC29); assay: inhibition of NOD2-driven NF-kB reporter – cell-based, luminescence, uHTS, HEK293 (AID 1566); format: functional
HEK293 [4] = assay: cells; format: functional, cell-based; settings: Homo sapiens
HEK293 [5] = assay: cells; format: functional, cell-based; settings: Homo sapiens; remark: listed apart in the source
HEK293 [6] = assay: NOD2 signaling inhibitors in MDP-stimulated cells, cell-based, uHTS, luminescence (AID 2001); format: functional; settings: Homo sapiens
HEK293 [7] = assay: cells; format: functional, cell-based; settings: Homo sapiens; remark: listed apart in the source
HEK293 [8] = assay: inhibition of NOD1-driven NF-kB reporter – cell-based, luminescence, uHTS, primary screen (AID 1578); format: functional; settings: Homo sapiens
INS1 = assay: INS-1E survival protection against cytokine death – cell-based, luminescence, retest, dose response (AID 449756); format: functional; settings: Rattus norvegicus;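 further: cell death triggered by IL-1 beta plus TNF-alpha plus IFN-gamma mixture; protective hits raise ATP signal compared with cytokine alone wells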
[9] = target: T2, Heat shock factor protein 1 (Mus musculus, UniProt P38532); assay: enhancement of HSF1-driven luciferase signal – cell-based, NIH3T3, luminescence, dose retest, confirmation (AID 435004); format: functional;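 further: stress induced by proteasome inhibitor MG132 added 30 min after compound; luciferase reporter driven by HSF1 response element in NIH3T3 cells; actives raise luminescence as potentiators of the MG132 stress response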
T2 sequence (P38532 whole entry): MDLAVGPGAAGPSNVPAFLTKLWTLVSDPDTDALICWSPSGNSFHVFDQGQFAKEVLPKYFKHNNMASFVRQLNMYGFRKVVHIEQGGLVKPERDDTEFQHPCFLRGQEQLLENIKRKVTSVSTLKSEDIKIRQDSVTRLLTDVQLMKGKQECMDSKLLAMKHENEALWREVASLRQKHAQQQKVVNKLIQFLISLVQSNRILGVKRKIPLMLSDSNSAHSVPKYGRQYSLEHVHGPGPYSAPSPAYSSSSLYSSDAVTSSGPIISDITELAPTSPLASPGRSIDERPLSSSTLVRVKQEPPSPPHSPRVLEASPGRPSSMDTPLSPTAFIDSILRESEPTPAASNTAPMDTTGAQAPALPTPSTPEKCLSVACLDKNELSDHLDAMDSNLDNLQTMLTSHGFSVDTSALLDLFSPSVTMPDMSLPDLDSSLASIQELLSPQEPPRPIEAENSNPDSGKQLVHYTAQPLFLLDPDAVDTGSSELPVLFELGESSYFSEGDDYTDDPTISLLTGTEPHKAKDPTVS

[10] = target: DNA dC->dU-editing enzyme APOBEC-3A (Homo sapiens, UniProt P31941); assay: Dose Response confirmation of small molecule APOBEC3A DNA Deaminase Inhibitors via a fluorescence-based single-stranded DNA deaminase assay. [Related pubchem assays (depositor defined):AID493011, AID493024]; format: functional
[11] = target: DNA dC->dU-editing enzyme APOBEC-3G (Homo sapiens, UniProt Q9HC16); format: functional;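 further: Dose-response counterscreen measuring inhibition of APOBEC3G DNA deaminase activity, run while confirming APOBEC3A inhibitors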
[12] = tested on: Streptococcus sp. 'group A'; assay: Streptococcus pyogenes SK(-)GAS viability under kanamycin – luminescence, BacTiterGlo, confirmation, counter-screen for streptokinase expression inhibitor project, dose response (AID 1900); format: functional, organism-based
[13] = target: Induced myeloid leukemia cell differentiation protein Mcl-1 (Homo sapiens, UniProt Q07820); format: functional
Streptococcus = assay: GAS UMAA2166 growth inhibition – luminescence, BacTiterGlo, counter-screen for streptokinase expression inhibitor project, dose response (AID 1915); format: functional, organism-based;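 further: potency for reduction of bacterial viability or growth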
Protein RecA = target: T3, Protein RecA (Mycobacterium tuberculosis, UniProt P9WHJ3); assay: Fluorescence Cell-Free Homogeneous Dose Retest to Identify Inhibitors of RecA-Intein Splicing Activity. [Related pubchem assays (depositor defined):AID2097, AID2223, AID489010, AID492950]; format: functional
T3 sequence (P9WHJ3 whole entry): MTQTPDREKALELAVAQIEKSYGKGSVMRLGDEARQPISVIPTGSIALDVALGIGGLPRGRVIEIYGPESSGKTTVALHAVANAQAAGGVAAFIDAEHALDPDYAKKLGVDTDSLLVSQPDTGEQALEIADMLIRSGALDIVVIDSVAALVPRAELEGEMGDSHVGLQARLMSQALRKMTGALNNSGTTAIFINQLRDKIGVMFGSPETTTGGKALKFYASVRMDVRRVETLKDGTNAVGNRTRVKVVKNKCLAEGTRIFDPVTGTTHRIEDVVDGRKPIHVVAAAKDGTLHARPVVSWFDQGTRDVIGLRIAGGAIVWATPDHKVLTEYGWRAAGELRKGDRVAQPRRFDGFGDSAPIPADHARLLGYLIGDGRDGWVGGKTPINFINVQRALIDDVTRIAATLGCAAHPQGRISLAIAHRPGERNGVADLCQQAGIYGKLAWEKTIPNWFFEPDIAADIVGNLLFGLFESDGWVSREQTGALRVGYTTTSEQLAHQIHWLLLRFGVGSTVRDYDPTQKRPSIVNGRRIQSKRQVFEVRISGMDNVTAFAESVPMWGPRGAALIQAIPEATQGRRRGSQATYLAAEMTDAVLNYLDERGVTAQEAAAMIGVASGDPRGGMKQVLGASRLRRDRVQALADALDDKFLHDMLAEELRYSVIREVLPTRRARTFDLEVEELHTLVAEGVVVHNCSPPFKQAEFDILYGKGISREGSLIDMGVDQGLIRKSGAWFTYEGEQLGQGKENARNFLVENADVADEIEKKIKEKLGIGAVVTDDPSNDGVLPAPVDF

[14] = target: T4, Replicative DNA helicase DnaB (Mycobacterium tuberculosis, UniProt P9WMR3); assay: DnaB intein splicing inhibitors, dose response, biochemical, cell-free fluorescence (AID 449749); format: functional
T4 sequence (P9WMR3 whole entry): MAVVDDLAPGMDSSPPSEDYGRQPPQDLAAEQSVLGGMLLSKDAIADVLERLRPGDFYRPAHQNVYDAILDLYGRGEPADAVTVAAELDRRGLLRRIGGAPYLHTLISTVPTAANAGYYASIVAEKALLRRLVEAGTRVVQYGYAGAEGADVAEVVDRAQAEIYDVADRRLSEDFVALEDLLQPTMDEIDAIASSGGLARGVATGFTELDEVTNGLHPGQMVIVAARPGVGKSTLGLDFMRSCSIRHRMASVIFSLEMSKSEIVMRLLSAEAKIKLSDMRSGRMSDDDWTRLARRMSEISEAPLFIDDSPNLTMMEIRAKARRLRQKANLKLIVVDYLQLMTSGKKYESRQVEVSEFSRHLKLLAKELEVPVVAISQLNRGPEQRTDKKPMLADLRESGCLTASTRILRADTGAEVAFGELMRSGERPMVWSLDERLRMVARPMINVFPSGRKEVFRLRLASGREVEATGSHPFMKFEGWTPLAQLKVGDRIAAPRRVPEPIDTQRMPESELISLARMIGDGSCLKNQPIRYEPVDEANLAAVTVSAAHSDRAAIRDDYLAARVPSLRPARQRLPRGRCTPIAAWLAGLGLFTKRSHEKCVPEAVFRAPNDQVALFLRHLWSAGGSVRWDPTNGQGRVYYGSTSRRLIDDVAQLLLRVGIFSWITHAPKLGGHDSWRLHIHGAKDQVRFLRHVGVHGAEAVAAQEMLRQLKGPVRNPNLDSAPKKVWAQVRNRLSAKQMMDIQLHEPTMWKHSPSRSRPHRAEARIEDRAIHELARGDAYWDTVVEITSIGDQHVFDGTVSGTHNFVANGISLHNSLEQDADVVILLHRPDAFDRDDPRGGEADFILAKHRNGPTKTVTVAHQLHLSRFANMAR

[15] = target: T5, Short transient receptor potential channel 4 (Mus musculus, UniProt Q9QUQ5); assay: block of DAMGO-driven TRPC4 calcium entry – cell-based, HEK293 TRPC4/mu-opioid, Fluo-4 calcium, dose response (AID 434942); format: functional;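 further: potency of inhibitors blocking the TRPC4 calcium response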
T5 sequence (Q9QUQ5 whole entry): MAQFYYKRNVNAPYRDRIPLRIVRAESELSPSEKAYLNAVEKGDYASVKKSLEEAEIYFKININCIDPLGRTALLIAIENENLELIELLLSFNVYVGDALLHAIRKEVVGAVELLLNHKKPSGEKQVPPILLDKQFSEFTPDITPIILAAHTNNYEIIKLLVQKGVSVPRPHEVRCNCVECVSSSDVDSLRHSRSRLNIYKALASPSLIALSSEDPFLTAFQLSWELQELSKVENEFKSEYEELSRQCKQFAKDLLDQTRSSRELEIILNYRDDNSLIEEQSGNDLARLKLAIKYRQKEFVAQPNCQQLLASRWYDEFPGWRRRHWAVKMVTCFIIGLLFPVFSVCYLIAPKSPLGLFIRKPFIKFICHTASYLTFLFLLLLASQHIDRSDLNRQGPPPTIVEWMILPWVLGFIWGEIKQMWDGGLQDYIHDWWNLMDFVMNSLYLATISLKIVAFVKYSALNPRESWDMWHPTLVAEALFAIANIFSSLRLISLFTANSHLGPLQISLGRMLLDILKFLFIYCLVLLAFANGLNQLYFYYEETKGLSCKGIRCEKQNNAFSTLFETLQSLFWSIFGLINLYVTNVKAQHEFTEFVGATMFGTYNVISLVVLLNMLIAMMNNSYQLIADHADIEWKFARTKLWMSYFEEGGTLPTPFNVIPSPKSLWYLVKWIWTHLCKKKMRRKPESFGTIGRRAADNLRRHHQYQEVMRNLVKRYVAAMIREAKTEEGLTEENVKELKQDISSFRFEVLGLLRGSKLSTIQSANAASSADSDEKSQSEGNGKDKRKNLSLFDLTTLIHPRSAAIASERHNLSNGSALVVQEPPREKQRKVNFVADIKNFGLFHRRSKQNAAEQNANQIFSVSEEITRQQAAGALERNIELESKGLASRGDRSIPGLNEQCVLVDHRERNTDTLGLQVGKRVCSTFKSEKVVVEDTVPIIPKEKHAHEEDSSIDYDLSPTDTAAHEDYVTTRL

[16] = target: Glyceraldehyde-3-phosphate dehydrogenase (Homo sapiens, UniProt P04406)

T1 sequence (Q00975 whole entry): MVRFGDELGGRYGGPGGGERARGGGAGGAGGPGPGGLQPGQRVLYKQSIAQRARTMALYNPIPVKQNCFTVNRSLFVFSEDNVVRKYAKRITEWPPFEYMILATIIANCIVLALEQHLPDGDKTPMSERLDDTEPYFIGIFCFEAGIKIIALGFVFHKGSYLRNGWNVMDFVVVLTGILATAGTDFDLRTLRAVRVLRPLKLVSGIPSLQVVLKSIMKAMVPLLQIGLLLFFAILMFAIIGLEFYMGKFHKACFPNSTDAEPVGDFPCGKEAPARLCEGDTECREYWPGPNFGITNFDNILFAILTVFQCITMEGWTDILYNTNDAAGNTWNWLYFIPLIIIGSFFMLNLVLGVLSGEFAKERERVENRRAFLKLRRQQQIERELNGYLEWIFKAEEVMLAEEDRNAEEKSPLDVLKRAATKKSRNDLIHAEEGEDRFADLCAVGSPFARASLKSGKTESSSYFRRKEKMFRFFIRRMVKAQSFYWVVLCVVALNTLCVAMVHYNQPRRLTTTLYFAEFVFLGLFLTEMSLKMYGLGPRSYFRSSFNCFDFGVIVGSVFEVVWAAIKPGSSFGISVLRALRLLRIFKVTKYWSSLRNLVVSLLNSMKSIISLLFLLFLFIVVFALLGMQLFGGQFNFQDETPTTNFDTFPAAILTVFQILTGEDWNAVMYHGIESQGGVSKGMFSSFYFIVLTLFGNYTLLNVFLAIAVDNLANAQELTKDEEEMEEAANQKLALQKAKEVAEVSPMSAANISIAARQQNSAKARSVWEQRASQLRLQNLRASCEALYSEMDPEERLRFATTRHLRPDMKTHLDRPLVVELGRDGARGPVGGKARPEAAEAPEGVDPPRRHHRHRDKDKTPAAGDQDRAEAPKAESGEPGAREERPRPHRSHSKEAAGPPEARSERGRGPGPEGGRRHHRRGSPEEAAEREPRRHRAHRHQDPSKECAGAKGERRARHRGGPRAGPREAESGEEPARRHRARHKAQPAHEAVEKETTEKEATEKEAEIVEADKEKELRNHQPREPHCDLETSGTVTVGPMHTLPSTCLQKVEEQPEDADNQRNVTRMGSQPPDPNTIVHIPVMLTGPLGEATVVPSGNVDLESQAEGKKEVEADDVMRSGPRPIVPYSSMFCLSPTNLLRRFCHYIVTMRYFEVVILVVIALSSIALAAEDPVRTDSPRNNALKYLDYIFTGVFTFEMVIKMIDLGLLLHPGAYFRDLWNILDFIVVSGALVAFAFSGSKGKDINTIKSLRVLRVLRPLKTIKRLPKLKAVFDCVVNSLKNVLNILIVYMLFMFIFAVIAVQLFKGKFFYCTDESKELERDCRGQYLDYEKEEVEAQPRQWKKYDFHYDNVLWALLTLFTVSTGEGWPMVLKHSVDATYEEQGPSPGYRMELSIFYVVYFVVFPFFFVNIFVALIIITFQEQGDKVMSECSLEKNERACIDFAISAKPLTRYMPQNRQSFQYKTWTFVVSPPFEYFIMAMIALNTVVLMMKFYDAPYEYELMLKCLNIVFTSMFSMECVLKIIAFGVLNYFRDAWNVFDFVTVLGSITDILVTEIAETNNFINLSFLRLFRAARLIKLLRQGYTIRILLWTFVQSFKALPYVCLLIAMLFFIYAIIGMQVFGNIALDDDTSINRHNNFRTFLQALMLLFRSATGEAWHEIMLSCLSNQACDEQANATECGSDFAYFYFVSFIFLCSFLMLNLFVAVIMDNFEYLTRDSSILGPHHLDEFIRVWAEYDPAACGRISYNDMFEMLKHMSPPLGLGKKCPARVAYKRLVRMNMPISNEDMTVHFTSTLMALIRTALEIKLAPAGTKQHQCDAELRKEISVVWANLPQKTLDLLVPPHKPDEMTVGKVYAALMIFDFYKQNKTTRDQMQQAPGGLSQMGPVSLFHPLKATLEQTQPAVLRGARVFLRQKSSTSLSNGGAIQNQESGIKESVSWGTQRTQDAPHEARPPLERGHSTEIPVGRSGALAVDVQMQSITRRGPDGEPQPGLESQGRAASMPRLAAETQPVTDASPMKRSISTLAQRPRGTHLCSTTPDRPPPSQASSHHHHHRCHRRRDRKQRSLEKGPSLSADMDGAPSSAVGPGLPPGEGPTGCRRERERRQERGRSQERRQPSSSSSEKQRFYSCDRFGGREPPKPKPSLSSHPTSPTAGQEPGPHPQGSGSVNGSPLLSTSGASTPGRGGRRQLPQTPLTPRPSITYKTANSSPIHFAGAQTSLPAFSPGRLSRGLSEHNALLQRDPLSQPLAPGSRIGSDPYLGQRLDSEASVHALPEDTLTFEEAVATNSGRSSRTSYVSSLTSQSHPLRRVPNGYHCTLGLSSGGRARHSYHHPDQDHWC
T1 sequence (Q02410 whole entry): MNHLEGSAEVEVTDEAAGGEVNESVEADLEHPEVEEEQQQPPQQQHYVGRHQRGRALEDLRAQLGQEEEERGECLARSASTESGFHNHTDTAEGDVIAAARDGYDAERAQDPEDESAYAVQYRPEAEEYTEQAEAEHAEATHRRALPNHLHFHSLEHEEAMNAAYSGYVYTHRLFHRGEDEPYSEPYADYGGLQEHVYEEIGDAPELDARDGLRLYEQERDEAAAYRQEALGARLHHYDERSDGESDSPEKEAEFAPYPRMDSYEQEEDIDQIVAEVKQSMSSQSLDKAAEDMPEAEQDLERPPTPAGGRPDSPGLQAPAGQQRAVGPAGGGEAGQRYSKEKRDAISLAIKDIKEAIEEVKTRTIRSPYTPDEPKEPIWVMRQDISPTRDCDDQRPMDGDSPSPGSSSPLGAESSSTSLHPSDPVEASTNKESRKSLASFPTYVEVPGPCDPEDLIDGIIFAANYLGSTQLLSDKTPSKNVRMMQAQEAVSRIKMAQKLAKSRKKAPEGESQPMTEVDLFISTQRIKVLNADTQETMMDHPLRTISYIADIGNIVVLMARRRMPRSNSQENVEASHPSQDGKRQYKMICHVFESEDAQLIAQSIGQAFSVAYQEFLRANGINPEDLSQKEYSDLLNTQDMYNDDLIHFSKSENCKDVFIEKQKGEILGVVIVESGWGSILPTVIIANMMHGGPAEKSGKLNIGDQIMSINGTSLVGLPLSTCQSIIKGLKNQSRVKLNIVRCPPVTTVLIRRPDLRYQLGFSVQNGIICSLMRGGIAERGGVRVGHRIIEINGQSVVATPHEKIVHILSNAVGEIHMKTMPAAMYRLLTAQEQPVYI
Sequence of Nucleotide-binding oligomerization domain-containing protein 2 (Q9HC29 whole entry, the tested form may be a part): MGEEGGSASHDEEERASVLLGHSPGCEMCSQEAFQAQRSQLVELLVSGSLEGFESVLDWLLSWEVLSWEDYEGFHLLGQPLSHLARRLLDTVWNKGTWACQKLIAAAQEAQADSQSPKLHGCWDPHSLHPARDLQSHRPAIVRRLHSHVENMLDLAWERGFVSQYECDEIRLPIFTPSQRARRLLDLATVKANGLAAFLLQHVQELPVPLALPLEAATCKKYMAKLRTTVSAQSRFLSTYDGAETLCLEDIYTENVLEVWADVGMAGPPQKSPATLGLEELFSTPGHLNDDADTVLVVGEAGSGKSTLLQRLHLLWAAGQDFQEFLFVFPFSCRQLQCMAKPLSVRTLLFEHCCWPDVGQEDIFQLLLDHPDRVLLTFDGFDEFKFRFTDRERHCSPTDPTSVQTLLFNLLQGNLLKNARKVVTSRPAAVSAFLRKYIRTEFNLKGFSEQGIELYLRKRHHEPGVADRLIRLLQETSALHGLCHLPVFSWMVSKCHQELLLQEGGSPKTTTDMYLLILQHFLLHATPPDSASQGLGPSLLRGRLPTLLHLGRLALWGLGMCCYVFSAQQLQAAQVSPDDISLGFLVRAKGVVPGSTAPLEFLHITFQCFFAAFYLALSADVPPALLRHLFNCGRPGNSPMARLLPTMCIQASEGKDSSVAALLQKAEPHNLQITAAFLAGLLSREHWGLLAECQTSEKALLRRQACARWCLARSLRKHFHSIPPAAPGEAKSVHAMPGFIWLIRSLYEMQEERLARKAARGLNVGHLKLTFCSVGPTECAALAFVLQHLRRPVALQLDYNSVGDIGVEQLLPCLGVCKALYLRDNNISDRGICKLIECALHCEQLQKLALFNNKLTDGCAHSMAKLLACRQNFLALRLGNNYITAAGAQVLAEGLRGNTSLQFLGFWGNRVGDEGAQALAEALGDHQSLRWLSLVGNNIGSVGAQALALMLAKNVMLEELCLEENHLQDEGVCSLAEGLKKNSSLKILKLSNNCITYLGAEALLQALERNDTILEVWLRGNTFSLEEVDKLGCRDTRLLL
Sequence of Cytochrome P450 3A4 (P08684 whole entry): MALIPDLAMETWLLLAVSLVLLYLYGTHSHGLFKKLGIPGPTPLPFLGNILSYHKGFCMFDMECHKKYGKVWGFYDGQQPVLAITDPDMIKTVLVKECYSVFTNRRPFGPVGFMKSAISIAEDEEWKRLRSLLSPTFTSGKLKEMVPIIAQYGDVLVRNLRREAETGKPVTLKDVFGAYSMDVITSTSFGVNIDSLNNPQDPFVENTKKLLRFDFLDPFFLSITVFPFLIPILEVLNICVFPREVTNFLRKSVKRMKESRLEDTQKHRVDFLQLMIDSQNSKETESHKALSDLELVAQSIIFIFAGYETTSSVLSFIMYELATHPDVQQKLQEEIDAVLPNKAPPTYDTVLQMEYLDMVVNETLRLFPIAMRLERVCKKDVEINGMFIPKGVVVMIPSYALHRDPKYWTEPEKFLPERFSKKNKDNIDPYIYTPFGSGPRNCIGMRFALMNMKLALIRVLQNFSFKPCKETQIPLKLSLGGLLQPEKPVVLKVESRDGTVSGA
Sequence of DNA dC->dU-editing enzyme APOBEC-3G (Q9HC16 whole entry): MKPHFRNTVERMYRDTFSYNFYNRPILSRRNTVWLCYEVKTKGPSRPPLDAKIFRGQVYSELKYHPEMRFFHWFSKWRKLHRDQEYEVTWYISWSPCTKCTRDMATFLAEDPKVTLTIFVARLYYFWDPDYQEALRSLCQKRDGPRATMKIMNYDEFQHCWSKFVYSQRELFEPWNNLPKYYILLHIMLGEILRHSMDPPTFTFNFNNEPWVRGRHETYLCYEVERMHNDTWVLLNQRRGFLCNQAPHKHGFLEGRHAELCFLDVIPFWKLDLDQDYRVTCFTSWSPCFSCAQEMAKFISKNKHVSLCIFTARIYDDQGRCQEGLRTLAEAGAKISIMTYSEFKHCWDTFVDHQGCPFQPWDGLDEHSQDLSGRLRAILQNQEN

Which AC50 (Cytochrome P450 3A4) does the source give for `C[C@H]1C[C@]2(O[C@@H]2C)C(=O)O[C@@H]2CCN(C)C/C=C(/COC(=O)[C@]1(C)O)C2=O` here?
Its AC50 is 25.1 µM (inconclusive).

Which results are given for `Cc1cc(C)nc(NC(=S)Nc2ccc(Br)cc2Cl)c1`?
IC50 [1]: 5.57 µM (active); IC50 [2]: > 50 µM (inactive)

How did the AC50 (Cytochrome P450 3A4) turn out when `CCCn1c(C)nc2c(NCCCCN(CC)CC)nc(C)nc21` was run?
Its AC50 is 20 µM (inconclusive).

`CCN(CC)c1ccc(S(=O)(=O)N2CCOCC2)cc1NC(=O)CN1CCc2ccccc2C1` was tested. Which EC50 [3] did it give?
Its EC50 is 11.5 µM (active).

What about the IC50 (HEK293 [4]) of the same compound?
Its IC50 is > 20 µM (inactive).

And the IC50 (HEK293 [5])?
The IC50 was 7.07 µM (active).

And the IC50 (HEK293 [6])?
Its IC50 is 11.5 µM (inactive).

And the IC50 (HEK293 [7])?
Its IC50 is > 20 µM (inactive).

What about the EC50 (HEK293 [8]) of the same compound?
Its EC50 is 10.5 µM (active).

Which results are given for `FC(F)(F)c1cnc(NN=C(S)Nc2ccccc2Cl)c(Cl)c1`?
IC50 (HEK293 [4]): > 20 µM (inactive); IC50 (HEK293 [5]): 6.49 µM (active); IC50 (HEK293 [6]): 6.98 µM (inactive); IC50 (HEK293 [7]): 15.1 µM (active); AC50 (INS1): 7.04 µM (active); EC50 (HEK293 [8]): 6.06 µM (active)

`FC(F)(F)c1cnc(NNC(=S)Nc2ccccc2Cl)c(Cl)c1` was tested. Which EC50 [3] did it give?
Its EC50 is 11 µM (active).

Which EC50 [9] does the source give for `Cc1ccc(C)c(NC(=O)C2CC(O)CN2C(=O)Oc2ccccc2)c1` (configuration not stated) here?
Its EC50 is > 260 µM (inactive).

What about the IC50 [10] of the same compound?
Its IC50 is 10 µM (active).

And the IC50 [11]?
Its IC50 is 10.4 µM (active).

With `Cc1[nH]n(-c2ccccc2)c(=O)c1/C=C1/C(=O)NN(c2ccc(F)c(Cl)c2)C1=O` as the compound, how does the EC50 [12] read?
Its EC50 is 4.06 µM (active).

And the IC50 [13]?
The IC50 was 5.78 µM (active).

What about the EC50 (Streptococcus) of the same compound?
The EC50 was 7.24 µM (active).

And the EC50 (Protein RecA)?
The EC50 was 12 µM (active).

What about the AC50 [14] of the same compound?
Its AC50 is 4.54 µM (active).

And the EC50 [15]?
Its EC50 is 5.31 µM (active).

For `O=C(NCCO)c1cc(-c2ccc(F)cc2F)n[nH]1`, which IC50 [16] is on record?
Its IC50 is > 10 µM (inconclusive).
